No end group written: not given here.

The values below come from paper PMC6937582, “Human leukocyte antigen (HLA) class II peptide flanking residues tune the immunogenicity of a human tumor-derived epitope” (The Journal of Biological Chemistry, 2019).

One assay concerns the target T1, HLA-DR1 (Homo sapiens, UniProt P01903+P01911, A100R/D57E/F55L/F60I/F76Y/I96L/L162R/M171V/P40L/Q125E/R42F/V115G/Y59C).
T1 construct: DRα*0101 (Uniprot: P01903, residues 26–207); HLA-DRβ1*0101 (Uniprot: P04229, residues 30–219); made in house
The assay can be described thus: HLA-DR1 competitive peptide-binding assay. As to conditions: Fig. 2B; competition with 4.5 nM biotinylated CLIP99–117 marker peptide on refolded HLA-DR1-CLIP105–117, pH 5, overnight 37 °C, ELISA read-out; triplicate; four-parameter curve fit; read-out: HLA-DR1 binding IC50. (ELISA stands for enzyme-linked immunosorbent assay.)
The term IC50 denotes the midpoint of a concentration-inhibition curve. As for AGDGRLRLARLALVLLGWVS [5T4_11–30], the IC50 turned out to be 0.535 µM.
As to FARRPPLAELAALNLSGSRL [5T4_111–130], the IC50 is 0.176 µM.

The same assay, now with this note: Fig. 5 B,D,F,H,J; truncated/substituted 5T4_111–130 peptides; competition with biotinylated CLIP99–117, pH 5, overnight 37 °C; representative of two experiments in triplicate; read-out: HLA-DR1 binding (IC50).
Consider FARRPPLAELAAANLSGSRL, for which the IC50 was 0.725 µM.
FARRPPLAELAALNLSRSRL: the concentration for half-maximal inhibition (IC50) was 0.255 µM.
Turning to FARRPPLAELAALNLSGS, the IC50 came to 0.103 µM.
For the sequence RRPPLAELAALNLSGSRL, the IC50 is 0.417 µM.
For the sequence FARRPPLAELAALNLS, the IC50 turned out to be 0.36 µM.
For LAELAALNL, the IC50 amounted to 5.14 µM.
Still for that read-out and setting: as for FARRPPLAELAALNLSGSRL [5T4_111–130], the figure is 0.136 µM.
As to PPLAELAALNLSGSRL, the IC50 was 0.231 µM.

The same assay, now with this note: HLA-DR1 binding (IC50).
Turning to FARRPPLAELAALALSGSRL, the IC50 was found to be 0.144 µM.
